The text below walks through data of ChEMBL document CHEMBL1149570, “Thiotetrazole alkynylacetanilides as potent and bioavailable non-nucleoside inhibitors of the HIV-1 wild type and K103N/Y181C double mutant reverse transcriptases” (Bioorg Med Chem Lett, 2007).

In general, Cmax refers to the maximum level reached in the sampled fluid or tissue. The term AUC denotes the area under the concentration-time curve, a measure of exposure. High values mean high exposure, low ones low exposure. What is called bioavailability is dose-corrected exposure relative to a reference, in per cent. Read a low bioavailability as poor availability.

Each structure is given as a SMILES string.

Common to all, as to format: ADME, organism-based
Series [1] is described as follows: Cmax in rat at 5 mg/kg, po. The settings on record: in vivo. The arrangement: dose 5 mg/kg, route oral.
Series [2] is described as follows: AUC in rat at 5 mg/kg, po. The arrangement: dose 5 mg/kg, route oral. The settings on record: plasma.
Series [3] in a line: Oral bioavailability in rat at 5 mg/kg. To be noted: in vivo.

Compound `CC(C)(C#Cc1ccc(NC(=O)CSc2nnnn2-c2ccc(C3CC3)cc2Cl)c(Cl)c1)CNCC(=O)O` came in with a Cmax in series [1] of 260 nM. Also, the area under the curve (AUC) in series [2] was found to be 0.84 µM·h. The bioavailability in series [3] amounted to 29%.
Taken in the same sequence, the figures for `CC(C)(C#Cc1ccc(NC(=O)CSc2nnnn2-c2ccc(C3CC3)cc2Cl)c(Cl)c1)C(=O)O` were 5000 nM, 9.5 µM·h and 66%.
In series [1], `CC(C)(C#Cc1ccc(NC(=O)CSc2nnnn2-c2ccc(C3CC3)cc2Cl)c(Cl)c1)NC(=O)CN` had a maximum concentration (Cmax) of 280 nM. In series [2], this compound came in with an AUC of 1 µM·h. In series [3], this compound registered a bioavailability of 21%.
